For data set [1] the following is noted: concurrent intake of grapefruit juice; cited from earlier work.
The conditions of data set [2]: 400 mg oral capsule, cited from earlier work.
The conditions of data set [3]: administration of nilotinib in a fruit preparation, human subjects.
Procedure: All treatments were administered with 240 mL of water, in the morning, after an overnight fast of at least 10 hours. Subjects continued to fast until 4 hours after administration. […] Consumption of grapefruit, grapefruit juice, or any caffeinated beverages within 48 hours of study initiation was prohibited.
At each time point, 2.5 mL of whole blood was drawn using a Serum Separator Vacutainer® (Becton, Dickinson and Company, Franklin Lakes, N.J., USA) tube. The tube was allowed to stand vertically at room temperature for 30 minutes prior to centrifugation at 5° C. for 10 minutes at 1100 g. Immediately after centrifugation, the upper serum sample was transferred and stored frozen at ≦−15° C. until shipped to the analytical site for sample analyses.
The MTBE layer was transferred, evaporated to dryness, and reconstituted with 400 μl of an acetonitrile and 0.2% formic acid mixture (40:60, v/v). Chromatography was carried out using a Phenomenex Synergi™ Polar-RP column (particle size 4 μm, 50 mm×2 mm i.d.) (Phenomenex, Inc, Torrance, Calif.) held at room temperature. Elution of the analytes was performed using a isocratic elution at a flow rate of 0.5 mL/min with mobile phases of 0.2% formic acid in 10 mM aqueous ammonium formate: 0.2% formic acid in acetonitrile (60:40, v/v).
[4] abbreviates: light breakfast given 30 minutes prior to dosing.

Each structure is given as a SMILES string. Like-named read-outs stand apart in the source and are kept apart here.

On to `Cc1cn(-c2cc(NC(=O)c3ccc(C)c(Nc4nccc(-c5cccnc5)n4)c3)cc(C(F)(F)F)c2)cn1` [nilotinib, 4-methyl-3-[[4-(3-pyridinyl)-2-pyrimidinyl]amino]-N-[5-(4-methyl-1H-imidazol-1-yl)-3-(trifluoromethyl)-phenyl]benzamide], for which, in data set [1], the AUC increase is reported as 29% and the Cmax increase was 60%. For the same compound, in data set [2] (after a high fat breakfast), the “increase in Cmax” value is given as 112% and the “increase in total exposure (AUC0-t)” value was 82%. Further, in data set [2] (setting [4]), the “increase in Cmax” value is on record as 55% and the “increase in total exposure (AUC0-t)” value is on record as 29%. In data set [3], the safety and tolerability result is “safe and well tolerated”.

These data come from patent US9061029B2, “Method of treating proliferative disorders and other pathological conditions mediated by Bcr-Abl, c-Kit, DDR1, DDR2 or PDGF-R kinase activity” (Novartis AG, priority 2009, dated 2015).
